Laboratory results taken from publication PMC8037586, “Synthesis and Enantioselective Pharmacokinetic/Pharmacodynamic Analysis of New CNS-Active Sulfamoylphenyl Carbamate Derivatives” (International Journal of Molecular Sciences, 2021).
Where two headings read alike, the source gives them in different places.

Legend:
[1] = Pharmacokinetics from brain levels after i.p. administration to rats; format: in vivo, rat; settings: i.p. 80 mg/kg; for AUCinf / AUC(0-inf) / CL/F / Cmax / MRT / Tmax / half-life / Vd/F: brain levels; for AUCinf / AUC(0-inf): 80 mg/kg; for AUC(0-inf) / Kp / CL/F / Cmax / MRT / Tmax / half-life / Vd/F: male, Sprague Dawley, rat, ip; for Kp: AUCbrain/AUCplasma, read-out: Brain-to-plasma (AUCinf) ratio; for Vd/F: read-out: Vss/F
Method: (§1) The pharmacokinetics (PK) of racemic-MBPC and its two individual enantiomers were studied following i.p. administration (80 mg/kg) to male Sprague Dawley rats weighing approximately 200–250 g, and their major PK parameters were estimated. The PK experiments were approved by the Ethical Committee of the Hebrew University’s Faculty of Medicine. The dose was administered to rats in multisol that is a mixture of propylene glycol, alcohol (EtOH), and water for injection at a ratio of 8:1:1. The study details were as described previously. Plasma and brain levels of racemic-MBPC and its individual enantiomers were monitored at 20, 40, 60, 90, 120, 160, 180, 200, 220, and 260 min after dosing. Two rats were sacrificed at each time point.
(§2) Plasma and brain concentrations of each compound were quantified by an HPLC assay. The HPLC analysis was performed on a system (2695 Separation Module; Waters, Milford, MA, USA) with a photodiode array UV detector (2996 PDA Detector; Waters, Milford, MA, USA) conditioned as follows: Kinetex, 5 u EVO C18 100 A, 1504.6-mm column (PhenomenexVR, Torrance, CA, USA). Linear gradients (5–95% acetonitrile content) with H2O (0.1% formic acid) and acetonitrile were used as the eluents with a flow rate of 1 mL/min at 20 °C. The compounds and the internal standard were detected at 250 nm. Plasma and brain concentrations of MBPC and its two individual enantiomers were quantified as previously described, [29].
(§3) The PK parameters of each compound were calculated by non-compartmental analysis based on statistical moment theory using the PK software Phoenix Winnonlin Tripos L.P. (Pharsight Co., Mountain View, CA, USA) as previously described.

[2] = tested on: rat maximal electroshock test (MES); experiment: Rat maximal electroshock (MES) anticonvulsant test; format: in vivo; settings: po, rats dosed p.o., read-out: MES-ED50 [95% CI]
Method: The experiments with the MES model were conducted in male Sprague Dawley rats weighing 100–120 g (Charles River Laboratories, Wilmington, MA, USA) as previously described. Eight rats were tested per dose in the dose–response curve in order to determine the ED50 value of each compound. The experiments were approved by the Ethical Committee of the NIH-ETSP program where the anticonvulsant activity was tested.

[3] = target: T1, human carbonic anhydrase (CA) isoform I (Homo sapiens, UniProt P00915); experiment: Stopped-flow CO2 hydrase assay, CA I; format: biochemical; settings: for Ki: means ± SEM of 3 different assays
[4] = Pharmacokinetics from plasma levels after i.p. administration to rats; format: in vivo, rat; settings: i.p. 80 mg/kg; for CL/F / Cmax / MRT / Tmax / half-life / Vd/F / AUC(0-inf): male, Sprague Dawley, rat, ip; for Vd/F: read-out: Vss/F; for AUC(0-inf): plasma
Method: as §1, §2, §3

[5] = tested on: rats; experiment: Minimal neurotoxicity (TD50) in rats; format: in vivo, rat; settings: rats dosed p.o.
Text: (§4) Table 3 Quantitative anticonvulsant and minimal neurotoxicity data (ED50 and TD50 values) and protective indexes (PI) of […] (MBPC) and 3-methylpentyl(4-sulfamoylphenyl)carbamate (MSPC). in rats dosed p.o. or i.p. ^b. | column: Neurotoxicity-TD50 (mg/kg) [95% CI] ^a; Protective Index (PI = TD50/ED50)

[6] = Minimal neurotoxicity (TD50) in rats; format: in vivo, rat; settings: rat, in vivo, po; rats dosed p.o.; read-out: Neurotoxicity-TD50 [95% CI]
Text: as §4

[7] = target: T2, human carbonic anhydrase (CA) isoform VII (Homo sapiens, UniProt P43166); experiment: Stopped-flow CO2 hydrase assay, CA VII; format: biochemical; settings: for Ki: means ± SEM of 3 different assays
[8] = target: T3, human carbonic anhydrase (CA) isoform IV (Homo sapiens, UniProt P22748); experiment: Stopped-flow CO2 hydrase assay, CA IV; format: biochemical; settings: means ± SEM of 3 different assays
[9] = target: T4, human carbonic anhydrase (CA) isoform II (Homo sapiens, UniProt P00918); experiment: Stopped-flow CO2 hydrase assay, CA II; format: biochemical; settings: for Ki: means ± SEM of 3 different assays
[10] = tested on: rats; design: method as in PMID 28275953, PMID 31124389; settings: cited from earlier work
[11] = target: T4, human carbonic anhydrase (CA) isoform II; design: method as in PMID 28275953, PMID 31124389; settings: previously reported data; cited from earlier work
[12] = target: T1, human carbonic anhydrase (CA) isoform I; design: method as in PMID 28275953, PMID 31124389; settings: previously reported data; cited from earlier work
[13] = tested on: rat maximal electroshock test (MES); design: method as in PMID 28275953, PMID 31124389; settings: cited from earlier work
[14] = target: T3, human carbonic anhydrase (CA) isoform IV; design: method as in PMID 28275953, PMID 31124389; settings: previously reported data; cited from earlier work
[15] = target: T2, human carbonic anhydrase (CA) isoform VII; design: method as in PMID 28275953, PMID 31124389; settings: previously reported data; cited from earlier work
[16] = Enantiostability: extraction from rat plasma and optical rotation measurement; format: in vitro ADME; settings: extracted from rat plasma; specific optical rotation compared to initial value
Text: MBPC was not included in such a series. […] The slightly better BPR of (S)-MBPC may contribute to its better rat anticonvulsant ED50 value. MBPC’s BPR values were better than that of (S)-MSPC but lower than those of racemic- and (R)-MSPC [10]. While (R)-MSPC has lower plasma and brain exposure compared to (S)-MSPC, the two MBPC enantiomers had similar brain permeability, with a slightly better BPR value for (S)-MBPC.

T1 sequence (P00915 whole entry, canonical isoform): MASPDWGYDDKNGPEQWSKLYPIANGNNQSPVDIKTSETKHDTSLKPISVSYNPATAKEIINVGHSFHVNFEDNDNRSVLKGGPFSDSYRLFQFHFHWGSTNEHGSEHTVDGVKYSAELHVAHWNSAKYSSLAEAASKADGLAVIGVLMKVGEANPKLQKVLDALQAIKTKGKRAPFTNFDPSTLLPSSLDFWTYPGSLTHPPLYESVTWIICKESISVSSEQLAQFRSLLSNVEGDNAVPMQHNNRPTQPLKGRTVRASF
T2 sequence (P43166 whole entry, canonical isoform): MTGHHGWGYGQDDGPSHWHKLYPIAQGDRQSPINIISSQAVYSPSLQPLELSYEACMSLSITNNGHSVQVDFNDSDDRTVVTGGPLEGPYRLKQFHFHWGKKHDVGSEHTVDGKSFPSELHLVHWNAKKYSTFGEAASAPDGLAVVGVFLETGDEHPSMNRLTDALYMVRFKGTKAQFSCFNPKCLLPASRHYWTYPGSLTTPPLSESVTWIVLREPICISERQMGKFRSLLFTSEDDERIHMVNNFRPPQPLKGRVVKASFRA
T3 sequence (P22748 19-312): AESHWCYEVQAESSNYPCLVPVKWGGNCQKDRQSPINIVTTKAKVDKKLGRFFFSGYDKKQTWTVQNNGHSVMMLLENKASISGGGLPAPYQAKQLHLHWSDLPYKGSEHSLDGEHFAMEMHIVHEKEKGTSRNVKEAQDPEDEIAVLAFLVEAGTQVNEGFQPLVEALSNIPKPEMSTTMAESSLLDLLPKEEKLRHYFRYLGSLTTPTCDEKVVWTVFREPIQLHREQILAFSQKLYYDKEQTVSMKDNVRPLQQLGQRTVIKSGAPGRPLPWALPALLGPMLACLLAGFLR

Row | Structure (SMILES) | AUCinf [1] [ng·h/mL] | AUC(0-inf) ([1]; brain) [ng·h/mL] | CL/F [1] [mL/min/kg] | Cmax [1] [ng/mL] | MRT [1] [h] | Tmax [1] [h] | half-life [1] [h] | Vd/F [1] [L/kg] | ED50 [2] [mg/kg] | Ki [3] [nM] | CL/F ([4]; plasma levels) [mL/min/kg] | Cmax ([4]; plasma levels) [ng/mL] | MRT ([4]; plasma levels) [h] | Tmax ([4]; plasma levels) [h] | half-life ([4]; plasma levels) [h] | Vd/F ([4]; plasma levels) [L/kg] | AUC(0-inf) ([4]; 80 mg/kg, plasma levels) [ng·h/mL] | Protective Index (PI = TD50/ED50) [5] | TD50 [6] [mg/kg] | Ki [7] [nM] | other results
1 | CCC(C)OC(=O)Nc1ccc(S(N)(=O)=O)cc1 (racemic) [Racemic-MBPC] | 47800 | 48000 | 28.3 | 16500 | 2 | 1.33 | 0.7 | 3.4 | 25 | 97.1 ± 5.3 | 41.7 | 15300 | 1.7 | 0.33 | 0.5 | 4.3 | 32000 | >20 | > 500 | 121 ± 8 | Kp ([1]; brain/plasma): 1.49; Ki [8]: 432 ± 28 nM; Ki [9]: 20.2 ± 1.5 nM
2 | CCC(C)CCOC(=O)Nc1ccc(S(N)(=O)=O)cc1 (racemic) [Racemic-MSPC, 3-methylpentyl(4-sulfamoylphenyl)carbamate] |  |  |  |  |  |  |  |  |  |  |  |  |  |  |  |  |  |  |  |  | Neurotoxicity-TD50 [95% CI] ([10]; rats dosed i.p.): >250 mg/kg; Protective Index (PI = TD50/ED50) ([10]; rats dosed i.p.): >19; Neurotoxicity-TD50 [95% CI] ([10]; rats dosed p.o.): >500 mg/kg; Protective Index (PI = TD50/ED50) ([10]; rats dosed p.o.): >18; Ki [11]: 7.6 ± 0.5 nM; Ki [12]: 77 ± 4.7 nM; MES-ED50 [95% CI] ([13]; rats dosed i.p.): 13 [8–22] mg/kg; MES-ED50 [95% CI] ([13]; rats dosed p.o.): 28 [18–35] mg/kg; Ki [14]: 750 ± 42 nM; Ki [15]: 351 ± 26 nM
3 | CC[C@@H](C)OC(=O)Nc1ccc(S(N)(=O)=O)cc1 [(R)-MBPC] | 30400 | 30000 | 43.3 | 11400 | 2.1 | 2.7 | 0.5 | 5.4 | 39 | 203 ± 13 | 55 | 10700 | 2 | 1.7 | 0.6 | 6.7 | 24000 | >13 | > 500 | 197 ± 14 | Kp ([1]; brain): 1.27; higher clearance than its enantiomer ([4]; (R)- vs (S)-enantiomer): 65%; enantiostability (chiral inversion) [16]: no chiral inversion was observed; Ki [8]: 522 ± 26 nM; Ki [9]: 7.1 ± 0.4 nM; effectiveness relative to its (S)-enantiomer against hCA II ([9]; ratio of KI values): five times more effective
4 | CC[C@@H](C)CCOC(=O)Nc1ccc(S(N)(=O)=O)cc1 [(R)-MSPC] |  |  |  |  |  |  |  |  |  |  |  |  |  |  |  |  |  |  |  |  | Neurotoxicity-TD50 [95% CI] ([10]; rats dosed i.p.): 134 [108–158] mg/kg; Protective Index (PI = TD50/ED50) ([10]; rats dosed i.p.): 3.4; Ki [11]: 3.3 ± 0.2 nM; Ki [12]: 34.1 ± 2.5 nM; MES-ED50 [95% CI] ([13]; rats dosed i.p.): 39 [31–44] mg/kg; MES-ED50 [95% CI] ([13]; rats dosed p.o.): 30 [22–37] mg/kg; Ki [14]: 810 ± 55 nM; Ki [15]: 170 ± 9 nM
5 | CC[C@H](C)OC(=O)Nc1ccc(S(N)(=O)=O)cc1 [(S)-MBPC] | 51500 | 52000 | 26.7 | 15200 | 4.2 | 1.66 | 0.9 | 5 | 19 | 71.8 ± 6.5 | 33.3 | 12700 | 2.7 | 1 | 1.2 | 5.7 | 40000 | >11 | > 200 | 53.3 ± 2.9 | Kp ([1]; brain): 1.32; times more effective than the (R)-enantiomer against hCA I ([3]; ratio of KI values): 2.9 times; AUCinf ([4]; plasma levels, 80 mg/kg): 39600 ng·h/mL; enantiostability (chiral inversion) [16]: no chiral inversion was observed; times more effective than the (R)-enantiomer against hCA VII ([7]; ratio of KI values): 3.7 times; Ki [8]: 249 ± 13 nM; Ki [9]: 34.9 ± 1.4 nM
6 | CC[C@H](C)CCOC(=O)Nc1ccc(S(N)(=O)=O)cc1 [(S)-MSPC] |  |  |  |  |  |  |  |  |  |  |  |  |  |  |  |  |  |  |  |  | Neurotoxicity-TD50 [95% CI] ([10]; rats dosed i.p.): 149 [121–157] mg/kg; Protective Index (PI = TD50/ED50) ([10]; rats dosed i.p.): 3.5; Ki [11]: 20.3 ± 1.4 nM; Ki [12]: 130 ± 8 nM; MES-ED50 [95% CI] ([13]; rats dosed i.p.): 43 [33–52] mg/kg; MES-ED50 [95% CI] ([13]; rats dosed p.o.): 24 [17–29] mg/kg; Ki [14]: 593 ± 42 nM; Ki [15]: 744 ± 36 nM
